Columns and labels:
rats = test: Test A: administration by infusion (rats), recovery after termination of infusion; format: in vivo, rat (Sprague-Dawley)
Description: (§1) Test compounds, e.g., representative compounds of the invention as well as the comparison compound, propanidid, were formulated in (1) 10% cremophor EL/90% D5W (5% dextrose in distilled water) (2) 10% Liposyn® III (Intravenous Fat Emulsion, containing (per 100 mL) 10 g soybean oil, 1.2 g egg phosphatides and […]), available from Abbott Laboratories, North Chicago, Ill.; and (3) injections (10) or (11) (as described in Example 16) with Miglyol® 810 (caprylic/capric glyceride). Typically, formulation (1) above was used for bolus dosing and formulations (2) or (3) for infusion dosing. Compounds of the invention and propanidid were synthesized as described in Examples 1-15 below. Propofol formulated in soybean oil, sold as Diprivan® injectable emulsion was obtained from AstraZeneca (Wilmington, Del.).
Administration by Infusion (Rats)
Rats (adult Sprague-Dawley) were placed in a perspex restrainer and anesthesia induced by bolus injection via the tail vein (0.15-1 mL/kg over approximately 3 seconds at a dose, estimated from the earlier bolus experiments, to produce anesthesia of approximately 2 minutes duration). Immediately after bolus administration, an infusion (with a duration of typically 20, 180 or 300 minutes), via the tail vein, was commenced (0.075-0.5 mL/kg/min at a half of the bolus dose/min). In some experiments, the initial infusion rate was maintained throughout, while in others, the rate was modified as necessary to maintain a consistent depth of anesthesia (as defined by moderate paw withdrawal in response to noxious pinch). Following completion of the infusion, duration of anesthesia (i.e. duration of loss of righting reflex) and behavioral recovery (i.e. duration of ataxia, sedation or lethargy following return of the righting reflex) was recorded.
Administration by infusion (rats): Recovery times following termination of administration by infusion in rats were determined for compound 1 and for the comparison compounds propofol and propanidid. The duration of the loss of righting reflex (in minutes) following termination of infusion is given as a function of duration of infusion in Table 2 below.

guinea pigs = test: Test A: bolus administration (guinea pigs), loss of righting reflex; format: in vivo, guinea pig; conditions: bolus via ear vein, calculated from dose response
Description: as §1
Bolus Administration (Guinea Pigs)
Adult male guinea pigs were dosed by bolus administration (0.1-0.25 mL volume) via an ear vein. Duration of loss of righting reflex was measured as described above for rats.
Bolus administration (guinea pigs): The potency of compound 1 was also tested in guinea pigs by the analogous procedure. The dose of compound 1 required to produce 2 minutes of loss of righting reflex in guinea pigs was calculated to be 8 mg/kg, as compared with a dose of 13 mg/kg for propanidid.

[1] = 20 minute Infusion via tail vein

Row | Compound | Duration of Loss of Righting Reflex Following Termination of Infusion (rats; [1]) | Duration of Loss of Righting Reflex Following Termination of Infusion (rats; 3 hour Infusion via tail vein) | Duration of Loss of Righting Reflex Following Termination of Infusion (rats; 5 hour Infusion via tail vein) | dose required to produce 2 minutes of loss of righting reflex (guinea pigs)
1 | CC(C)c1cccc(C(C)C)c1O [Propofol, 2,6-diisopropylphenol] | 30.0 ± 2.9 min | 47.8 ± 5.3 min | 59.0 ± 1.4 min | 
2 | CCCOC(=O)Cc1ccc(OCC(=O)N(CC)CC)c(OCC)c1 [Compound 1, [4-[(N,N-Diethylcarbamoyl)methoxy]-3-ethoxyphenyl]acetic acid propyl ester] | 1.4 ± 0.1 min | 1.7 ± 0.1 min | 2.6 ± 1.0 min | 8 mg/kg
3 | CCCOC(=O)Cc1ccc(OCC(=O)N(CC)CC)c(OC)c1 [Propanidid, [4-[(N,N-diethylcarbamoyl)methoxy]-3-methoxyphenyl]acetic acid propyl ester] | 1.6 ± 0.2 min | 1.4 ± 0.1 min |  | 13 mg/kg
